Data from ChEMBL document CHEMBL4476873, “Substituted urea depsipeptide analogs as activators of the clpp endopeptidase” (2018).
Values after ≈ are worked out from the molar mass of the structure shown.

Columns and labels:
Staphylococcus aureus [1] = experiment: Antimicrobial activity against Staphylococcus aureus USA300 deficient in ClpP incubated overnight under aerobic condition by microbroth dilution method; type: functional
Staphylococcus aureus [2] = experiment: Antimicrobial activity against Staphylococcus aureus ATCC 29213 incubated overnight under aerobic condition by microbroth dilution method; type: functional
Staphylococcus aureus [3] = experiment: Antimicrobial activity against Staphylococcus aureus USA300 incubated overnight under aerobic condition by microbroth dilution method; type: functional
Streptococcus pyogenes = experiment: Antimicrobial activity against Streptococcus pyogenes ATCC 700294 incubated overnight under aerobic condition by microbroth dilution method; type: functional
Streptococcus pneumoniae = experiment: Antimicrobial activity against Streptococcus pneumoniae R6 incubated overnight under aerobic condition by microbroth dilution method; type: functional
Bacillus subtilis = experiment: Antimicrobial activity against Bacillus subtilis ATCC 23857 incubated overnight under aerobic condition by microbroth dilution method; type: functional
Staphylococcus aureus [4] = experiment: Antimicrobial activity against Staphylococcus aureus NRS70 incubated overnight under aerobic condition by microbroth dilution method; type: functional
Vero = experiment: Cytotoxicity in African green monkey Vero cells assessed as reduction in cell viability incubated for 72 hrs by cell-titer-Glo luminescent cell viability assay; type: cell-based; details: Chlorocebus sabaeus
Enterococcus faecalis = experiment: Antimicrobial activity against Enterococcus faecalis ATCC 33186 incubated overnight under aerobic condition by microbroth dilution method; type: functional

SMILES | MIC (Staphylococcus aureus [1]) [µM] | MIC (Staphylococcus aureus [2]) [µM] | MIC (Staphylococcus aureus [3]) [µM] | MIC (Staphylococcus aureus [4]) [µM] | MIC (Streptococcus pyogenes) [µM] | further results
Cc1ccc(NC(=O)N[C@@H](Cc2cc(F)cc(F)c2)C(=O)N[C@@H]2C(=O)N3CCC[C@H]3C(=O)N(C)[C@@H]([C@H](C)O)C(=O)N[C@@H](C)C(=O)N3C[C@H](C)C[C@H]3C(=O)O[C@H]2C)cc1 |  | 0.05 (≈ 0.0406 µg/mL) | 0.1 (≈ 0.0812 µg/mL) |  | 0.1 (≈ 0.0812 µg/mL) | MIC (Streptococcus pneumoniae): 0.02 µM (≈ 0.0162 µg/mL); MIC (Bacillus subtilis): 0.05 µM (≈ 0.0406 µg/mL)
C[C@H]1C[C@H]2C(=O)O[C@@H](C)[C@H](NC(=O)[C@H](Cc3cc(F)cc(F)c3)NC(=O)Nc3ccc(C(F)(F)F)cc3)C(=O)N3CCC[C@H]3C(=O)N3CCCC[C@H]3C(=O)N[C@@H](C)C(=O)N2C1 |  |  |  |  | 1.5 (≈ 1.29 µg/mL) | 
Cc1ccc(NC(=O)N[C@@H](Cc2cc(F)cc(F)c2)C(=O)N[C@@H]2C(=O)N3CCC[C@H]3C(=O)N3CCOC[C@H]3C(=O)N[C@@H](C)C(=O)N3C[C@H](C)C[C@H]3C(=O)O[C@H]2C)cc1 | > 200 | 0.003 (≈ 0.00243 µg/mL) |  |  | 0.02 (≈ 0.0162 µg/mL) | MIC (Streptococcus pneumoniae): 0.002 µM (≈ 0.00162 µg/mL)
C[C@H]1C[C@H]2C(=O)O[C@@H](C)[C@H](NC(=O)[C@H](Cc3cc(F)cc(F)c3)NC(=O)Nc3ccc(OC(F)(F)F)cc3)C(=O)N3C[C@H](O)C[C@H]3C(=O)N(C)[C@@H](C)C(=O)N[C@@H](C)C(=O)N2C1 | 100 (≈ 86.8 µg/mL) | 0.1 (≈ 0.0868 µg/mL) |  | 0.1 (≈ 0.0868 µg/mL) |  | 
COc1cccc(NC(=O)N[C@@H](Cc2ccccc2)C(=O)N[C@H]2COC(=O)[C@@H]3C[C@@H](C)CN3C(=O)[C@H](C)NC(=O)[C@@H]3CCCCN3C(=O)[C@@H]3CCCN3C2=O)c1 |  | 3.13 (≈ 2.42 µg/mL) |  | 3.13 (≈ 2.42 µg/mL) |  | 
C[C@H]1C[C@H]2C(=O)O[C@@H](C)[C@H](NC(=O)[C@H](Cc3cc(F)cc(F)c3)NC(=O)Nc3ccc(OC(F)(F)F)cc3)C(=O)N3CCC[C@H]3C(=O)N(C)[C@@H](C)C(=O)N[C@@H](C)C(=O)N2C1 | 25 (≈ 21.3 µg/mL) | 0.05 (≈ 0.0426 µg/mL) | 0.1 (≈ 0.0852 µg/mL) | 0.05 (≈ 0.0426 µg/mL) | 0.23 (≈ 0.196 µg/mL) | MIC (Bacillus subtilis): 0.01 µM (≈ 0.00852 µg/mL)
CCc1ccc(NC(=O)N[C@@H](Cc2cc(F)cc(F)c2)C(=O)N[C@@H]2C(=O)N3CCC[C@H]3C(=O)N(C)[C@@H]([C@H](C)O)C(=O)N[C@@H](C)C(=O)N3C[C@@H](C)C[C@H]3C(=O)O[C@H]2C)cc1 | 100 (≈ 82.6 µg/mL) |  |  |  |  | IC50 (Vero): 33.8 µM
C[C@H]1C[C@H]2C(=O)OC[C@H](NC(=O)[C@H](Cc3ccccc3)NC(=O)Nc3ccc(OC(F)(F)F)cc3)C(=O)N3CCC[C@H]3C(=O)N3CCCC[C@H]3C(=O)N[C@@H](C)C(=O)N2C1 |  | 0.4 (≈ 0.331 µg/mL) |  | 0.4 (≈ 0.331 µg/mL) |  | 
CN[C@@H]1[C@H](O)[C@H](NC)[C@H]2O[C@@]3(O)C(=O)C[C@@H](C)O[C@H]3O[C@@H]2[C@H]1O [SPECTINOMYCIN] |  | 50 (≈ 16.6 µg/mL) | 50 (≈ 16.6 µg/mL) |  |  | 
CN(C)[C@@H]1C(O)=C(C(N)=O)C(=O)[C@@]2(O)C(O)=C3C(=O)c4c(O)cccc4[C@@](C)(O)[C@H]3C[C@@H]12 [TETRACYCLINE] |  |  |  |  |  | MIC (Bacillus subtilis): 1.6 µM (≈ 0.711 µg/mL); MIC (Enterococcus faecalis): 0.05 µM (≈ 0.0222 µg/mL)

Second part, led by results:

MIC (Staphylococcus aureus [1]) [µM] | MIC (Staphylococcus aureus [2]) [µM] | MIC (Staphylococcus aureus [3]) [µM] | MIC (Staphylococcus aureus [4]) [µM] | SMILES | MIC (Streptococcus pyogenes) [µM] | further results
> 200 |  |  |  | Cc1ccc(NC(=O)N[C@@H](Cc2cc(F)cc(F)c2)C(=O)N[C@H]2COC(=O)[C@@H]3C[C@@H](F)CN3C(=O)[C@H](C)NC(=O)[C@@H]3CCCCN3C(=O)[C@@H]3CCCN3C2=O)cc1 |  | 
100 (≈ 79.4 µg/mL) |  |  |  | Cc1ccc(NC(=O)N[C@@H](Cc2cc(F)cc(F)c2)C(=O)N[C@H]2COC(=O)[C@@H]3C[C@H](C)CN3C(=O)[C@H](C)NC(=O)[C@@H]3CCCCN3C(=O)[C@@H]3CCCN3C2=O)cc1 |  | 
100 (≈ 82.6 µg/mL) |  |  |  | CCc1ccc(NC(=O)N[C@@H](Cc2cc(F)cc(F)c2)C(=O)N[C@@H]2C(=O)N3CCC[C@H]3C(=O)N(C)[C@@H]([C@H](C)O)C(=O)N[C@@H](C)C(=O)N3C[C@H](C)C[C@H]3C(=O)O[C@H]2C)cc1 |  | IC50 (Vero): 24.9 µM
 | 0.1 (≈ 0.0796 µg/mL) | 0.1 (≈ 0.0796 µg/mL) |  | CCc1ccc(NC(=O)N[C@@H](Cc2cc(F)cc(F)c2)C(=O)N[C@@H]2C(=O)N3CCC[C@H]3C(=O)N(C)[C@@H](C)C(=O)N[C@@H](C)C(=O)N3C[C@@H](C)C[C@H]3C(=O)O[C@H]2C)cc1 |  | 
 |  | 3.1 (≈ 1 µg/mL) | 3.1 (≈ 1 µg/mL) | O=C(N[C@H](CO)[C@H](O)c1ccc([N+](=O)[O-])cc1)C(Cl)Cl [CHLORAMPHENICOL] |  | 
 | 1.56 (≈ 0.756 µg/mL) |  |  | NC[C@H]1O[C@H](O[C@H]2[C@H](O)[C@@H](O[C@H]3O[C@H](CO)[C@@H](O)[C@H](N)[C@H]3O)[C@H](N)C[C@@H]2N)[C@H](O)[C@@H](O)[C@@H]1O [KANAMYCIN] | 12.5 (≈ 6.06 µg/mL) | MIC (Bacillus subtilis): 0.1 µM (≈ 0.0485 µg/mL)
